In patent US20040229895A1, “Tetracyclic benzamide derivatives and methods of use thereof” (Inotek Pharmaceuticals Corporation, priority 2003, published 2004):

Molecular target: T1, PARP (Mus musculus, UniProt P11103)
T1 construct: endogenous in cells; host or cells: RAW mouse macrophages
Test: PARP activation in peroxynitrite-stimulated cultured macrophages, whole-cell based assay (3H-NAD+ incorporation)
Settings: RAW mouse macrophages, peroxynitrite-induced PARP activation, 10 min pretreatment; for inhibition at 0.3 µM: 300 nM; for inhibition at 0.1 µM: 100 nM
Protocol: RAW mouse macrophages were cultured in DMEM medium with high glucose and supplemented with 10% fetal bovine serum. Cells were used at 80% confluence in 12-well plates. Cells were pretreated with various concentrations (100 nM-1 μM) of a Tetracyclic Benzamide Derivative for 10 min. Peroxynitrite, a prototypical oxidant which induces DNA single strand breakage, was used to induce PARP activation. Peroxynitrite was diluted in phosphate buffered saline (PBS) (pH 11.0) and added to the cells in a bolus of 50 μl. Cells were then incubated for 20 min. […] After the 20 min incubation, the cells were spun, the medium was aspirated and the cells were resuspended in 0.5 mL assay buffer (56 mM HEPES pH 7.5, 28 mM KCl, 28 mM NaCl, 2 mM MgCl2, 0.01% w/v digitonin and 0.125 μM NAD^+ and 0.5 μCi/ml ^3H-NAD^+). Following an incubation in assay buffer, (10 min at 37° C.), PARP activity was measured as follows: 200 μl ice cold 50% w/v TCA was added and the samples were incubated for 4 h at 4° C. Samples were then spun (10 min @ 10,000 g) and pellets washed twice with ice cold 5% w/v TCA and solubilized overnight in 250 μl 2% w/v SDS/0.1 N NaOH at 37° C. The contents of the tubes were added to 6.5 mL ScintiSafe Plus scintillation liquid (Fisher Scientific) and radioactivity was determined using a liquid scintillation counter (Wallac, Gaithersburg, Md.).

T1 sequence (P11103 whole entry): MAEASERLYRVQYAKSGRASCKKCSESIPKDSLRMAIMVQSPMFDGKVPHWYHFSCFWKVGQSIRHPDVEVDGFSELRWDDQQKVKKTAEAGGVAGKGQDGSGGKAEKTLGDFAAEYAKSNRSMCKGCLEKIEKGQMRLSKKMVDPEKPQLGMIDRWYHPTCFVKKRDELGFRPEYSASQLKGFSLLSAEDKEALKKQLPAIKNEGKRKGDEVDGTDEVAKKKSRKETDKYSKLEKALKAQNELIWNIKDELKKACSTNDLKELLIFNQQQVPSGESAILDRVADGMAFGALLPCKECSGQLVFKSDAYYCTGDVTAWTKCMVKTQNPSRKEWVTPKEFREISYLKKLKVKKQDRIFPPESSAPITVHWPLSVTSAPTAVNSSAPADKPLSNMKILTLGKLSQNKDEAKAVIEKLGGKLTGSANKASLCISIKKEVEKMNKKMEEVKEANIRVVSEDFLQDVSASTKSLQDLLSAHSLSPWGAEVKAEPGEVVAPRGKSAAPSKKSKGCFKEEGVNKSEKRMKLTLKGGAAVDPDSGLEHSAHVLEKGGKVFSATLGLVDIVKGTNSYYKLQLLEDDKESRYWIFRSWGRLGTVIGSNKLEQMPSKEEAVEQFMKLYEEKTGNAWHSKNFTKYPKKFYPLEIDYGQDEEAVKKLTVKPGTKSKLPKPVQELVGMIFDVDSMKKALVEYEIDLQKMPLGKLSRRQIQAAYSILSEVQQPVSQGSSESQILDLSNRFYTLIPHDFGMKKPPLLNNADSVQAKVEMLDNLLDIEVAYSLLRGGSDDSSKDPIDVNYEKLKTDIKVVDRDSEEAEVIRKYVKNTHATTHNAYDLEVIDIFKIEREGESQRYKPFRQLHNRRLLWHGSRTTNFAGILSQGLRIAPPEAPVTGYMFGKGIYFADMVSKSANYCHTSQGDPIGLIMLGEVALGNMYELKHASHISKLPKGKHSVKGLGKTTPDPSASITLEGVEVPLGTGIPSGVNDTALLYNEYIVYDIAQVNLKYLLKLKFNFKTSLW

inhibition at 0.3 µM	inhibition at 1 µM	inhibition at 0.1 µM	SMILES
9%	70%		O=c1[nH]c2c(c3ccccc13)-c1ccc(S(=O)(=O)NCCCN3CCOCC3)cc1C2 [Compound 11a, 5-Oxo-5,7-dihydro-6H-indeno[2,1-c]isoquinoline-9-sulfonic acid (3-morpholin-4-yl-propyl)-amide]
66%	67%	40%	CC(=O)Oc1nc2c3ccccc3oc2c2ccccc12 [Compound 16g, Acetic acid 11-oxa-6-aza-benzo[a]fluoren-5-yl ester]
54%	61%	36%	Cc1ccc2c(n1)oc1c3ccccc3c(=O)[nH]c21 [Compound 26a, 9-Methyl-6H-11-oxa-6,10-diaza-benzo[a]fluoren-5-one]
